Experimental data: patent US8613914B2, “Peptidomimetic sulfamide compounds and antiviral uses thereof” (Novartis AG, priority 2009, dated 2013)

Molecular target: HCV NS3-4A serine protease (full-length NS3-4A protein) (Hepatitis C virus genotype 1a (isolate 1) (HCV), UniProt P26664)
Assay: HCV NS3-4A protease assay
Type: biochemical, HCV genotype 1a
Details: strain HCV-1, fluorogenic peptide substrate, read-out: Protease assay Ex. 12 IC50
Protocol: The inhibitory activity of certain compounds of Table A against HCV NS3-4A serine protease is determined in a homogenous assay using the full-length NS3-4A protein (genotype 1a, strain HCV-1) and a commercially available internally-quenched fluorogenic peptide substrate as described by Taliani, M., et al. 1996 Anal. Biochem. 240:60-67, which is incorporated by reference in its entirety.

Sequence of HCV NS3-4A serine protease (full-length NS3-4A protein) (P26664 1027-1657): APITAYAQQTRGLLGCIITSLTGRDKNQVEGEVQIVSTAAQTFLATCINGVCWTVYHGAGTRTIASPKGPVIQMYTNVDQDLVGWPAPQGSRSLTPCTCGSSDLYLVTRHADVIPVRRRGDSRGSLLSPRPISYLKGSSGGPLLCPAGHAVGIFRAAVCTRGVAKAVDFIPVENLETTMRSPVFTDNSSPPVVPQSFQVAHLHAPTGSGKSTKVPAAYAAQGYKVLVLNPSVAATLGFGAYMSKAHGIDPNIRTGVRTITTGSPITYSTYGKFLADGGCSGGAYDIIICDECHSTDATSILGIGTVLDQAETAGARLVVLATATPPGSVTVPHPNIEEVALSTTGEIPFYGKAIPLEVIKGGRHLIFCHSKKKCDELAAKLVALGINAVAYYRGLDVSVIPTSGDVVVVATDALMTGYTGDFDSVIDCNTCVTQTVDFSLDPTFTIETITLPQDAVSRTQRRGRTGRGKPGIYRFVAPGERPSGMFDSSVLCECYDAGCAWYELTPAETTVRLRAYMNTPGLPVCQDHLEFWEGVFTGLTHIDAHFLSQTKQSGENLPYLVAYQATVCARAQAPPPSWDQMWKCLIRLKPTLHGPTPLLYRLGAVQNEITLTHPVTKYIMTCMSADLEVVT
Sequence of HCV NS3-4A serine protease (full-length NS3-4A protein) (P26664 1658-1711 partner): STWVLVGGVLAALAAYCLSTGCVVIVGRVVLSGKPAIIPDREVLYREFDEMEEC

| SMILES | IC50 [nM] |
| --- | --- |
| C=C[C@@H]1C[C@]1(NC(=O)[C@@H]1C[C@@]2(CN1C(=O)[C@@H](NC(=O)[C@@H](NC(=O)[C@@H]1CCCCN1C(C)C)C1CCCCC1)C(C)(C)C)C(C)(C)C21CCC1)C(=O)NS(=O)(=O)N(C)C1CCC1 [Compound 49, (5R,8S)-N-[(1R,2S)-1-({[cyclobutyl(methyl)amino]sulfonyl}carbamoyl)-2-vinylcyclopropyl]-7-[(2S)-2-{[(2S)-2-cyclohexyl-2-({[(2S)-1-isopropylpiperidin-2-yl]carbonyl}amino)acetyl]amino}-3,3-dimethylbutanoyl]-10,10-dimethyl-7-azadispiro[3.0.4.1]decane-8-carboxamide] | 3.3 |
| C=C[C@@H]1C[C@]1(NC(=O)[C@@H]1C[C@@]2(CN1C(=O)[C@@H](NC(=O)[C@@H](NC(=O)[C@@H]1CCCCN1C(C)C)C1CCCCC1)C(C)(C)C)C(C)(C)C21CCC1)C(=O)NS(=O)(=O)N(C)CC1CC1 [Compound 50, (5R,8S)-7-[(2S)-2-{[(2S)-2-cyclohexyl-2-({[(2S)-1-isopropylpiperidin-2-yl]carbonyl}amino)acetyl]amino}-3,3-dimethylbutanoyl]-N-[(1R,2S)-1-({[(cyclopropylmethyl)(methyl)amino]sulfonyl}carbamoyl)-2-vinylcyclopropyl]-10,10-dimethyl-7-azadispiro[3.0.4.1]decane-8-carboxamide] | 3.8 |
| C=C[C@@H]1C[C@]1(NC(=O)[C@@H]1C[C@@]2(CN1C(=O)[C@@H](NC(=O)C(Nc1cccnc1)C(C)(C)C)C(C)(C)C)C(C)(C)C21CCC1)C(=O)NS(=O)(=O)N1CCCC1 (stereo partly drawn) [Compound 51, (5R,8S)-7-[(2S)-2-{[3,3-dimethyl-2-(pyridin-3-ylamino)butanoyl]amino}-3,3-dimethylbutanoyl]-10,10-dimethyl-N-{(1R,2S)-1-[(pyrrolidin-1-ylsulfonyl)carbamoyl]-2-vinylcyclopropyl}-7-azadispiro[3.0.4.1]decane-8-carboxamide] | 1150 |
| C=C[C@@H]1C[C@]1(NC(=O)[C@@H]1C[C@@]2(CN1C(=O)[C@@H](NC(=O)[C@@H](NC(=O)[C@@H]1CCCCN1C(C)C)C1CCCCC1)C(C)(C)C)C(C)(C)C21CCC1)C(=O)NS(=O)(=O)N(C)C1CC1 [Compound 53, (5R,8S)-7-[(2S)-2-{[(2S)-2-cyclohexyl-2-({[(2S)-1-isopropylpiperidin-2-yl]carbonyl}amino)acetyl]amino}-3,3-dimethylbutanoyl]-N-[(1R,2S)-1-({[cyclopropyl(methyl)amino]sulfonyl}carbamoyl)-2-vinylcyclopropyl]-10,10-dimethyl-7-azadispiro[3.0.4.1]decane-8-carboxamide] | 1.7 |
| C=C[C@@H]1C[C@]1(NC(=O)[C@@H]1C[C@@]2(CN1C(=O)[C@@H](NC(=O)[C@@H](NC(=O)[C@@H]1CCCCN1C(C)C)C1CCCCC1)C(C)(C)C)C(C)(C)C21CCC1)C(=O)NS(=O)(=O)N(C)OC [Compound 55, (5R,8S)-7-[(2S)-2-{[(2S)-2-cyclohexyl-2-({[(2S)-1-isopropylpiperidin-2-yl]carbonyl}amino)acetyl]amino}-3,3-dimethylbutanoyl]-N-[(1R,2S)-1-({[methoxy(methyl)amino]sulfonyl}carbamoyl)-2-vinylcyclopropyl]-10,10-dimethyl-7-azadispiro[3.0.4.1]decane-8-carboxamide] | 1.4 |
| C=C[C@@H]1C[C@]1(NC(=O)[C@@H]1C[C@@]2(CN1C(=O)[C@@H](NC(=O)[C@@H](NC(=O)[C@@H]1CCCCN1C(C)C)C1CCCCC1)C(C)(C)C)C(C)(C)C21CCC1)C(=O)NS(=O)(=O)N(C)CCOC [Compound 56, (5R,8S)-7-[(2S)-2-{[(2S)-2-cyclohexyl-2-({[(2S)-1-isopropylpiperidin-2-yl]carbonyl}amino)acetyl]amino}-3,3-dimethylbutanoyl]-N-[(1R,2S)-1-({[(2-methoxyethyl)(methyl)amino]sulfonyl}carbamoyl)-2-vinylcyclopropyl]-10,10-dimethyl-7-azadispiro[3.0.4.1]decane-8-carboxamide] | 8 |
| C=C[C@@H]1C[C@]1(NC(=O)[C@@H]1C[C@@]2(CN1C(=O)[C@@H](NC(=O)[C@@H](NC(=O)[C@@H]1CCCCN1C(C)C)C1CCCCC1)C(C)(C)C)C(C)(C)C21CCC1)C(=O)NS(=O)(=O)NC1CCC1 [Compound 57, (5R,8S)-N-[(1R,2S)-1-{[(cyclobutylamino)sulfonyl]carbamoyl}-2-vinylcyclopropyl]-7-[(2S)-2-{[(2S)-2-cyclohexyl-2-({[(2S)-1-isopropylpiperidin-2-yl]carbonyl}amino)acetyl]amino}-3,3-dimethylbutanoyl]-10,10-dimethyl-7-azadispiro[3.0.4.1]decane-8-carboxamide] | 6.5 |
| C=C[C@@H]1C[C@]1(NC(=O)[C@@H]1C[C@@]2(CN1C(=O)[C@@H](NC(=O)[C@@H](NC(=O)[C@@H]1CCCCN1C(C)C)C1CCCC1)C(C)(C)C)C(C)(C)C21CCC1)C(=O)NS(=O)(=O)N1CCCC1 [Compound 58, (5R,8S)-7-[(2S)-2-{[(2S)-2-cyclopentyl-2-({[(2S)-1-isopropylpiperidin-2-yl]carbonyl}amino)acetyl]amino}-3,3-dimethylbutanoyl]-10,10-dimethyl-N-{(1R,2S)-1-[(pyrrolidin-1-ylsulfonyl)carbamoyl]-2-vinylcyclopropyl}-7-azadispiro[3.0.4.1]decane-8-carboxamide] | 3.5 |
| C=C[C@@H]1C[C@]1(NC(=O)[C@@H]1C[C@@]2(CN1C(=O)[C@@H](NC(=O)[C@@H](NC(=O)[C@@H]1CCCN1C(C)C)C1CCCC1)C(C)(C)C)C(C)(C)C21CCC1)C(=O)NS(=O)(=O)N1CCCC1 [Compound 59, (5R,8S)-7-[(2S)-2-{[(2S)-2-cyclopentyl-2-({[(2S)-1-isopropylpyrrolidin-2-yl]carbonyl}amino)acetyl]amino}-3,3-dimethylbutanoyl]-10,10-dimethyl-N-{(1R,2S)-1-[(pyrrolidin-1-ylsulfonyl)carbamoyl]-2-vinylcyclopropyl}-7-azadispiro[3.0.4.1]decane-8-carboxamide] | 3.5 |
| C=C[C@@H]1C[C@]1(NC(=O)[C@@H]1C[C@@]2(CN1C(=O)[C@@H](NC(=O)CC1(CC(N)=O)CCCCC1)C(C)(C)C)C(C)(C)C21CCC1)C(=O)NS(=O)(=O)N1CCCC1 [Compound 60, (5R,8S)-7-[(2S)-2-({[1-(2-amino-2-oxoethyl)cyclohexyl]acetyl}amino)-3,3-dimethylbutanoyl]-10,10-dimethyl-N-{(1R,2S)-1-[(pyrrolidin-1-ylsulfonyl)carbamoyl]-2-vinylcyclopropyl}-7-azadispiro[3.0.4.1]decane-8-carboxamide] | 1250 |
| C=C[C@@H]1C[C@]1(NC(=O)[C@@H]1C[C@@]2(CN1C(=O)[C@@H](NC(=O)CC1(CC#N)CCCCC1)C(C)(C)C)C(C)(C)C21CCC1)C(=O)NS(=O)(=O)N1CCCC1 [Compound 61, (5R,8S)-7-[(2S)-2-({[1-(cyanomethyl)cyclohexyl]acetyl}amino)-3,3-dimethylbutanoyl]-10,10-dimethyl-N-{(1R,2S)-1-[(pyrrolidin-1-ylsulfonyl)carbamoyl]-2-vinylcyclopropyl}-7-azadispiro[3.0.4.1]decane-8-carboxamide] | 750 |
| C=C[C@@H]1C[C@]1(NC(=O)[C@@H]1C[C@@]2(CN1C(=O)[C@@H](NC(=O)[C@@H](NC(=O)[C@@H]1CCCN1C(C)C)C1CCCCC1)C(C)(C)C)C(C)(C)C21CCC1)C(=O)NS(=O)(=O)N(CC)CC [Compound 62, (5R,8S)-7-[(2S)-2-{[(2S)-2-cyclohexyl-2-({[(2S)-1-isopropylpyrrolidin-2-yl]carbonyl}amino)acetyl]amino}-3,3-dimethylbutanoyl]-N-[(1R,2S)-1-{[(diethylamino)sulfonyl]carbamoyl}-2-vinylcyclopropyl]-10,10-dimethyl-7-azadispiro[3.0.4.1]decane-8-carboxamide] | 1 |
| C=C[C@@H]1C[C@]1(NC(=O)[C@@H]1C[C@@]2(CN1C(=O)[C@@H](NC(=O)[C@@H](NC(=O)[C@@H]1CCCN1CC)C1CCCCC1)C(C)(C)C)C(C)(C)C21CCC1)C(=O)NS(=O)(=O)N(CC)CC [Compound 63, (5R,8S)-7-[(2S)-2-{[(2S)-2-cyclohexyl-2-({[(2S)-1-ethylpyrrolidin-2-yl]carbonyl}amino)acetyl]amino}-3,3-dimethylbutanoyl]-N-[(1R,2S)-1-{[(diethylamino)sulfonyl]carbamoyl}-2-vinylcyclopropyl]-10,10-dimethyl-7-azadispiro[3.0.4.1]decane-8-carboxamide] | 1.2 |
| C=C[C@@H]1C[C@]1(NC(=O)[C@@H]1C[C@@]2(CN1C(=O)[C@@H](NC(=O)[C@@H](NC(=O)[C@@H]1CCCCN1C1CCCC1)C1CCCCC1)C(C)(C)C)C(C)(C)C21CCC1)C(=O)NS(=O)(=O)N(CC)CC [Compound 64, (5R,8S)-7-[(2S)-2-{[(2S)-2-cyclohexyl-2-({[(2S)-1-cyclopentylpiperidin-2-yl]carbonyl}amino)acetyl]amino}-3,3-dimethylbutanoyl]-N-[(1R,2S)-1-{[(diethylamino)sulfonyl]carbamoyl}-2-vinylcyclopropyl]-10,10-dimethyl-7-azadispiro[3.0.4.1]decane-8-carboxamide] | 2 |
| C=C[C@@H]1C[C@]1(NC(=O)[C@@H]1C[C@@]2(CN1C(=O)[C@@H](NC(=O)[C@@H](NC(=O)[C@H]1CCCCN1C(C)C)C1CCCCC1)C(C)(C)C)C(C)(C)C21CCC1)C(=O)NS(=O)(=O)N(CC)CC [Compound 65, (5R,8S)-7-[(2S)-2-{[(2S)-2-cyclohexyl-2-({[(2R)-1-isopropylpiperidin-2-yl]carbonyl}amino)acetyl]amino}-3,3-dimethylbutanoyl]-N-[(1R,2S)-1-{[(diethylamino)sulfonyl]carbamoyl}-2-vinylcyclopropyl]-10,10-dimethyl-7-azadispiro[3.0.4.1]decane-8-carboxamide] | 4.5 |
